From patent US10221129B2, “Inhibitors of human immunodeficiency virus replication” (ViiV HEALTHCARE UK (NO.5) LIMITED, priority 2015, dated 2019)

Columns and labels:
[1] = system: recombinant NL4-3 virus (nef section replaced with Renilla luciferase gene) in MT-2 cells; test: HIV cell culture assay (antiviral activity, luciferase readout); format: cell-based
Outline: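 Serial compound dilutions tested in MT-2 cells infected for 4-5 days with 293T-derived NL4-3 virus carrying Renilla luciferase in place of part of nef. Antiviral activity quantified as luciferase activity, read with a live-cell substrate.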

[2] = Compound cytotoxicity, XTT-based colorimetric assay; format: cell-based; settings: human, uninfected MT2 cells, day 4, XTT
Outline: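 Run under the antiviral-assay protocol but without virus. Viability was read on day 4 and CC50 values were derived from the readout.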

[3] = Renilla, NL43, MT-2 cells infected for 4-5 days with recombinant NL4-3 Renilla luciferase virus
[4] = MT-2 cells infected for 4-5 days with recombinant NL4-3 Renilla luciferase virus

CN(C(=O)[C@H](Cc1cc(F)cc(F)c1)NC(=O)NS(=O)(=O)N1CCCc2ccccc21)c1ccc2scnc2c1 [VN-5]
EC50 [1, 3]: 40 nM | CC50 at 4 days [2]: 95.9 µM

CN(C(=O)[C@H](Cc1cc(F)cc(F)c1)NC(=O)NS(=O)(=O)N1CCc2cccnc21)c1ccc2c(c1)ncn2C [GW-6]
EC50 [1, 3]: 630 nM | CC50 at 4 days [2]: > 25 µM

CN(C)C(=O)C1Cc2cccnc2N1S(=O)(=O)NC(=O)N[C@@H](Cc1cc(F)cc(F)c1)C(=O)N(C)c1ccc2scnc2c1 (single isomer, unassigned) [BB-28]
EC50 [1, 4]: 6050 nM | CC50 at 4 days [2]: > 100 µM

COc1ccc(N(C)C(=O)[C@H](Cc2ccccc2)NC(=O)NS(=O)(=O)Nc2ccc(Cc3ccncc3)cc2)cc1 [CA-39]
EC50 [1, 3]: 330 nM | CC50 at 4 days [2]: > 100 µM

COc1ccc(N(C)C(=O)[C@H](Cc2ccccc2)NC(=O)NS(=O)(=O)Nc2ccc(C(C)C)cc2)cc1 [CA-21]
EC50 [1, 3]: 80 nM | CC50 at 4 days [2]: > 100 µM

COc1ccc(N(C)C(=O)[C@H](Cc2ccccc2)NC(=O)NS(=O)(=O)n2ccc3cnccc32)cc1 [JB-80]
EC50 [1, 3]: 360 nM | CC50 at 4 day [2]: > 100 µM

Cc1cc(F)cc(N(C)C(=O)[C@H](Cc2cc(F)cc(F)c2)NC(=O)NS(=O)(=O)N2CCc3cccnc32)c1 [BB-13]
EC50 [1, 3]: 270 nM | CC50 at 4 days [2]: 89.5 µM

CN(C(=O)[C@H](Cc1cc(F)cc(F)c1)NC(=O)NS(=O)(=O)N1CC[C@@H](O)C1)c1ccc2scnc2c1 [VN-27]
EC50 [1, 3]: 90 nM | CC50 at 4 days [2]: > 100 µM

CN(C(=O)[C@H](Cc1cc(F)cc(F)c1)NC(=O)NS(=O)(=O)N1CCc2c(Cl)ccnc21)c1ccc2scnc2c1 [BB-8]
EC50 [1, 3]: 440 nM | CC50 at 4 days [2]: 82.4 µM

COc1ccc(N(C)C(=O)[C@H](Cc2ccccc2)NC(=O)NS(=O)(=O)Nc2cc(Cl)cc(Cl)c2)cc1 [CA-49]
EC50 [1, 3]: 180 nM | CC50 at 4 days [2]: > 33.3 µM

CN(C(=O)[C@H](Cc1cc(F)cc(F)c1)NC(=O)NS(=O)(=O)N1CCc2cccnc21)c1ccc2scnc2c1F [GW-22]
EC50 [1, 3]: 10 nM | CC50 at 4 days [2]: > 100 µM

COc1ccc(N(C)C(=O)[C@H](Cc2ccccc2)NC(=O)NS(=O)(=O)N2CCCc3ccccc32)cc1 [JB-2]
EC50 [1, 3]: 110 nM | CC50 at 4 days [2]: > 33.3 µM

CN(C(=O)[C@H](Cc1cc(F)cc(F)c1)NC(=O)NS(N)(=O)=O)c1ccc2scnc2c1 [VN-25]
EC50 [1, 3]: 150 nM | CC50 at 4 days [2]: 79.6 µM

COc1ccc(N(C)C(=O)[C@H](Cc2ccccc2)NC(=O)NS(=O)(=O)Nc2ccc3[nH]cnc3c2)cc1 [JB-36]
EC50 [1, 3]: 2260 nM | CC50 at 4 days [2]: > 100 µM

COc1ccc(N(C)C(=O)[C@H](Cc2ccccc2)NC(=O)NS(=O)(=O)Nc2ccccc2)cc1 [JB-4]
EC50 [1, 3]: 140 nM | CC50 at 4 days [2]: > 100 µM

COc1ccc(N(C(=O)[C@H](Cc2cc(F)cc(F)c2)NC(=O)NS(=O)(=O)N2CCc3cccnc32)C2CC2)cc1 [BB-32]
EC50 [1, 3]: 50 nM | CC50 at 4 days [2]: 62.6 µM

CCOc1ccc(N(CC)C(=O)[C@H](Cc2ccccc2)NC(=O)NS(=O)(=O)N2CCc3cc(OC)cc(C)c32)cc1 [JB-74]
EC50 [1, 3]: 1120 nM | CC50 at 4 days [2]: > 100 µM

CN(C(=O)[C@H](Cc1cc(F)cc(F)c1)NC(=O)NS(=O)(=O)N1CCNC(=O)C1)c1ccc2scnc2c1 [CA-151]
EC50 [1, 3]: 1070 nM | CC50 at 4 days [2]: > 100 µM

CCCc1ccc(N(C)C(=O)[C@H](Cc2cc(F)cc(F)c2)NC(=O)NS(=O)(=O)N2CCc3cccnc32)cc1 [BB-11]
EC50 [1, 3]: 10 nM | CC50 at 4 days [2]: 66.3 µM

CN(C(=O)[C@H](Cc1cc(F)cc(F)c1)NC(=O)NS(=O)(=O)n1ncc2cc(F)ccc21)c1ccc2scnc2c1 [ZY-20]
EC50 [1, 3]: 4190 nM | CC50 at 4 days [2]: > 100 µM

COc1ccc(N(C)C(=O)[C@H](Cc2ccccc2)NC(=O)NS(=O)(=O)Nc2ccc3c(c2)CCC3)cc1 [CA-11]
EC50 [1, 3]: 70 nM | CC50 at 4 days [2]: > 100 µM

CN(C(=O)[C@H](Cc1cc(F)cc(F)c1)NC(=O)NS(=O)(=O)N1CCc2ccnnc21)c1ccc2scnc2c1 [VN-17]
EC50 [1, 3]: 70 nM | CC50 at 4 days [2]: > 100 µM

COc1ccc(N(C)C(=O)[C@H](Cc2ccccc2)NC(=O)NS(=O)(=O)n2ccc3ccncc32)cc1 [CA-61]
EC50 [1, 3]: 400 nM | CC50 at 4 days [2]: > 100 µM

Cc1ncc(N(C)C(=O)[C@H](Cc2cc(F)cc(F)c2)NC(=O)NS(=O)(=O)N2CCc3cccnc32)cc1Cl [GW-15]
EC50 [1, 3]: 970 nM | CC50 at 4 days [2]: 5.1 µM

CN(C(=O)[C@H](Cc1cc(F)cc(F)c1)NC(=O)NS(=O)(=O)N1CCCC1c1ccccn1)c1ccc2scnc2c1 (single isomer, unassigned) [VN-1]
EC50 [1, 4]: 2480 nM | CC50 at 4 days [2]: > 100 µM

COc1ccccc1NS(=O)(=O)NC(=O)N[C@@H](Cc1ccccc1)C(=O)N(C)c1ccc2ncccc2c1 [JB-12]
EC50 [1, 3]: 170 nM | CC50 at 4 days [2]: 57.7 µM

COc1ccc(N(C)C(=O)[C@H](Cc2ccccc2)NC(=O)NS(=O)(=O)N2CCc3cc(C)ccc32)cc1 [CA-2]
EC50 [1, 3]: 140 nM | CC50 at 4 days [2]: > 33.3 µM

COc1ccc(N(C)C(=O)[C@H](Cc2cc(F)cc(F)c2)NC(=O)NS(=O)(=O)N2CCC(F)(F)CC2)cc1F [AW-3]
EC50 [1, 3]: 980 nM | CC50 at 4 days [2]: > 100 µM

COc1ccc(N(C)C(=O)[C@H](Cc2ccccc2)NC(=O)NS(=O)(=O)Nc2ccccc2NC(C)=O)cc1 [CA-42]
EC50 [1, 3]: 4120 nM | CC50 at 4 days [2]: > 100 µM

CN(C(=O)[C@H](Cc1cc(F)cc(F)c1)NC(=O)NS(=O)(=O)N1CCc2cccnc21)c1cccnc1 [GW-18]
EC50 [1, 3]: 180 nM | CC50 at 4 days [2]: > 100 µM

COc1ccc(N(C)C(=O)[C@H](Cc2ccccc2)NC(=O)NS(=O)(=O)Nc2ccccc2C(N)=O)cc1 [CA-22]
EC50 [1, 3]: 2510 nM | CC50 at 4 days [2]: > 100 µM

Cc1nc2c(F)c(N(C)C(=O)[C@H](Cc3cc(F)cc(F)c3)NC(=O)NS(=O)(=O)N3CCc4cccnc43)ccc2s1 [GW-21]
EC50 [1, 3]: 80 nM | CC50 at 4 days [2]: > 100 µM

CN(C(=O)[C@H](Cc1cc(F)cc(F)c1)NC(=O)NS(=O)(=O)N1CCc2cccnc21)c1ccc(CC(F)F)cc1 [BB-24]
EC50 [1, 3]: 10 nM | CC50 at 4 days [2]: > 33.3 µM

CN(C(=O)[C@H](Cc1cc(F)cc(F)c1)NC(=O)NS(=O)(=O)n1ccc2nccnc21)c1ccc2scnc2c1 [ZY-18]
EC50 [1, 3]: 150 nM | CC50 at 4 days [2]: > 100 µM

COc1ccc(N(C)C(=O)[C@H](Cc2ccccc2)NC(=O)NS(=O)(=O)NC(C)c2cccnc2)cc1 (stereo partly shown) [JB-65]
EC50 [1, 3]: 620 nM | CC50 at 4 days [2]: > 100 µM

COC(=O)Nc1ccc(NS(=O)(=O)NC(=O)N[C@@H](Cc2ccccc2)C(=O)N(C)c2ccc(OC)cc2)cc1 [JB-62]
EC50 [1, 3]: 290 nM | CC50 at 4 days [2]: > 100 µM

CCc1ccc(N(C)C(=O)[C@H](Cc2cc(F)cc(F)c2)NC(=O)NS(=O)(=O)N2CCc3cccnc32)cn1 [GW-3]
EC50 [1, 3]: 20 nM | CC50 at 4 days [2]: > 100 µM

COc1ccc(N(C)C(=O)[C@H](Cc2ccccc2)NC(=O)NS(=O)(=O)n2ncc3c(Cl)nc(Cl)cc32)cc1 [CA-66]
EC50 [1, 3]: 14600 nM | CC50 at 4 days [2]: > 100 µM

COc1ccc(N(C)C(=O)[C@H](Cc2ccccc2)NC(=O)NS(=O)(=O)Nc2cc(C)cc(C)c2)cc1 [CA-14]
EC50 [1, 3]: 120 nM | CC50 at 4 days [2]: > 33.3 µM

CN(C(=O)[C@H](Cc1cc(F)cc(F)c1)NC(=O)NS(=O)(=O)N1CC(C)(O)C1)c1ccc2scnc2c1 [CA-129]
EC50 [1, 3]: 140 nM | CC50 at 4 days [2]: > 100 µM

CN(C(=O)[C@H](Cc1cc(F)cc(F)c1)NC(=O)NS(=O)(=O)N(C)c1ccccn1)c1ccc2scnc2c1 [CA-113]
EC50 [1, 3]: 140 nM | CC50 at 4 days [2]: > 100 µM

CN(C(=O)[C@H](Cc1cc(F)cc(F)c1)NC(=O)NS(=O)(=O)N1CCc2cccnc21)c1ccc(C(F)(F)F)nc1 [GW-9]
EC50 [1, 3]: 180 nM | CC50 at 4 days [2]: 35.1 µM

COc1ccc(N(C)C(=O)[C@H](Cc2ccccc2)NC(=O)NS(=O)(=O)n2c3ccccc3c3ccccc32)cc1 [JB-9]
EC50 [1, 3]: 440 nM | CC50 at 4 days [2]: 74.2 µM

COc1ccc(N(C)C(=O)[C@H](Cc2ccccc2)NC(=O)NS(=O)(=O)Nc2cccc(C(N)=O)c2)cc1 [JB-61]
EC50 [1, 3]: 4910 nM | CC50 at 4 days [2]: > 100 µM

COc1ccc2c(n1)N(S(=O)(=O)NC(=O)N[C@@H](Cc1cc(F)cc(F)c1)C(=O)N(C)c1ccc3scnc3c1)CC2 [AW-2]
EC50 [1, 3]: 10 nM | CC50 at 4 days [2]: > 100 µM

COc1ccc(N(C)C(=O)[C@H](Cc2ccccc2)NC(=O)NS(=O)(=O)NCc2cncn2C)cc1 [JB-55]
EC50 [1, 3]: 14800 nM | CC50 at 4 days [2]: > 100 µM

CN(C(=O)[C@H](Cc1cc(F)cc(F)c1)NC(=O)NS(=O)(=O)N1CCc2ccncc21)c1ccc2scnc2c1 [BB-9]
EC50 [1, 3]: 410 nM | CC50 at 4 days [2]: > 100 µM

COc1ccc(N(C)C(=O)[C@H](Cc2ccccc2)NC(=O)NS(=O)(=O)N2CCc3cc(Cl)cc(Cl)c32)cc1 [CA-3]
EC50 [1, 3]: 5720 nM | CC50 at 4 days [2]: > 100 µM

COc1ccc(N(C)C(=O)[C@H](Cc2ccccc2)NC(=O)NS(=O)(=O)n2c(C)cc3cc(F)c(O)cc32)cc1 [CA-65]
EC50 [1, 3]: 4040 nM | CC50 at 4 days [2]: > 100 µM

CN(C(=O)[C@H](Cc1cc(F)cc(F)c1)NC(=O)NS(=O)(=O)Nc1ccccc1)c1ccc2scnc2c1 [CA-115]
EC50 [1, 3]: 60 nM | CC50 at 4 days [2]: > 100 µM

CN(C(=O)[C@H](Cc1cc(F)cc(F)c1)NC(=O)NS(=O)(=O)NCCc1ccccc1)c1ccc2scnc2c1 [CA-158]
EC50 [1, 3]: 340 nM | CC50 at 4 days [2]: > 100 µM

COc1ccc(N(C)C(=O)[C@H](Cc2ccccc2)NC(=O)NS(=O)(=O)n2nc(-c3ccccc3)c3ccccc32)cc1 [CA-63]
EC50 [1, 3]: 30200 nM | CC50 at 4 days [2]: 73.7 µM

COc1ccc(N(C)S(=O)(=O)NC(=O)N[C@@H](Cc2cc(F)cc(F)c2)C(=O)N(C)c2ccc3scnc3c2)cn1 [CA-118]
EC50 [1, 3]: 160 nM | CC50 at 4 days [2]: > 100 µM

COc1ccc(N(C)C(=O)[C@H](Cc2ccccc2)NC(=O)NS(=O)(=O)NCc2ccc3nc(C)[nH]c3c2)cc1 [JB-54]
EC50 [1, 3]: 12000 nM | CC50 at 4 days [2]: > 100 µM

CN(C(=O)[C@H](Cc1cc(F)cc(F)c1)NC(=O)NS(=O)(=O)N1CCc2cc(Br)cnc21)c1ccc2scnc2c1 [ZY-21]
EC50 [1, 3]: 490 nM | CC50 at 4 days [2]: > 100 µM

CC(=O)N1CCN(S(=O)(=O)NC(=O)N[C@@H](Cc2cc(F)cc(F)c2)C(=O)N(C)c2ccc3scnc3c2)CC1 [CA-148]
EC50 [1, 3]: 10300 nM | CC50 at 4 days [2]: > 100 µM
